Measurements published in paper PMC10764104, “Discovery of Molecular Glue Degraders via Isogenic Morphological Profiling” (ACS Chemical Biology, 2023).
pEC50: −log10 of the molar value.

Assays:
IKZF1 = biological target: T1, IKZF1 (Homo sapiens, UniProt Q13422); assay: Western blot analysis of IKZF1 degradation in MV4.11 cells; type: cell-based; conditions: 16 h
T1 construct: endogenous in cells; host or cells: MV4.11

RKO WT = assay: Quantitative expression proteomics to identify degradation targets; type: cell-based, human; conditions: 10 μM, 16 h, n = 2, and adjusted p < 0.01, over 8000 proteins quantified
Text: We selected FL2-14 for target elucidation (circled in black in Figure 2E) based on three criteria (Table S4). First, FL2-14 has low cosine similarity with all of the CRBN-dependent controls (i.e., no thick blue edges). […] Third, it has a unique chemical structure, being the only CRBN binder with the tail group modification 14 predicted to have CRBN-dependent bioactivity (Figure 3A). To elucidate the target for FL2-14, we performed quantitative proteomics to evaluate changes in protein abundances upon treatment with FL2-14. […]
Figure 3 FL2-14 is a selective GSPT2 molecular glue degrader. […] (B) DMSO-normalized quantitative proteomics after 16 h of treatment with FL2-14 (10 μM) in RKO WT (n = 2). […]
of the sample sizes of (i.e. number of images in) RKO CRBN OE and RKO CRBN KO data. We, thus, normalized the U scores calculated to allow us to compare U scores for different treatments with varying sample sizes: […]
Comparing the treatment‐centric features of compounds predicted to have CRBN‐dependent bioactivity. […] We then retrieve the matrix of Kendall’s τ‐b correlation coefficients calculated per feature for each compound. […]
We then visualized the cosine similarities calculated on a network graph with NetworkX (https://networkx.org, version 3.1), using the spring_layout() with seed set to 500 and iterations set to 200. […]

recombinant DDB1-CRBN = biological target: T2, recombinant DDB1-CRBN (Homo sapiens, UniProt Q96SW2); assay: Fluorescence polarization-based competition assay for CRBN binding; conditions: 200 nM CRBN-DDB1, 20 nM pomalidomide-fluorescein tracer 16, triplicates; read-out: FP_CRBN_binding: CRBN binding affinity, EC50
T2 construct: His; made in house; host or cells: High Five insect cells (baculovirus made and propagated in SF9 cells)

CN(Cc1ncc(C2CC2)o1)S(=O)(=O)Oc1ccc(Nc2ccc3c(c2)C(=O)N(C2CCC(=O)NC2=O)C3=O)cc1 (stereo not drawn) [FL2-14]
IKZF1 degradation (IKZF1): did not induce degradation of IKZF1
proteins significantly downregulated (quantitative proteomics) (RKO WT): GSPT2, FAM83F, and ZBTB39
pEC50 (recombinant DDB1-CRBN): 6.00
